# Columns and labels:
# [1] = system: MDA-MB-231 human breast adenocarcinoma cells; assay: Xenograft study in nude mice; assay type: in vivo; settings: 50 mg/kg intraperitoneal three times per week from day 15; subcutaneous MDA-MB-231 xenograft, female NCr nu/nu mice
# Experimental: Tumor growth inhibition by tetrahydroisoquinolin-2-yl-(quinazolin-4-yl)methanone compounds in an animal model was carried out by performing an […] xenograft study of nude mice was conducted with Compound 1. Suitable human cancer cell lines are those that have been tested previously for inhibition of cancer cell growth. The antitumor efficacy of Compound 1 was evaluated against subcutaneously injected tumor xenografts in nude mice. Tumor volume was measured after treatment with Compound 1.
# A suspension of MDA-MB-231 cells (5×10^6 cells in […]) was injected subcutaneously into the right flank of CR female NCr nu/nu mice on day 0. A sufficient number of mice were injected with MDA-MB-231 cell suspension (0.2 ml/mouse) so that tumors in a volume range as narrow as possible were selected for the trial on the day of treatment initiation. Animals with tumors in the proper size range (100˜150 mm^3) were assigned to various treatment groups. Compound 1 was dissolved in the mixture of 15% dimethylacetamide and 30% Solutol® HS15 in water. Solvent alone served as control. […] To quantify tumor growth, three perpendicular diameters of the tumors were measured with calipers every 3-4 days, and the body weight of the mice was monitored for toxicity. The tumor volume was calculated using the formula: tumor volume (mm^3)=(width)×(length)×(height)×π/6.
# [2] = system: HCT116 (colon); assay: SRB growth inhibition assay, HCT116; assay type: cell-based, Human; settings: Homo sapiens, HCT-116, 96 hours incubation, read-out: Inhibition of cell growth (IC50, μM) HCT116
# From the text: (§1) Cancer cells used in this study to determine the effect of tetrahydroisoquinolin-2-yl-(quinazolin-4-yl)methanone compounds were obtained from the following sources: Human OVCAR-3 (ovary), SK-MEL-28 (melanoma), MDA-MB-231 (breast), HeLa (cervix), PC3 (prostate), HepG2 (liver), A549 (lung), Caki-1 (kidney), HCT116 (colon) and PANC-1 (pancreas) from the American Type Culture Collection (ATCC) (Manassas, Va.); U251 (brain) from Riken (Japan); MKN-45 (stomach) from DSMZ (Germany). All cell lines except MDA-MB-231, HCT116, Caki-1 and PANC-1 were grown in RPMI1640 medium (Invitrogen, Carlsbad, Calif.) supplemented with 10% fetal bovine serum (“FBS”), 1 mM sodium pyruvate, 10 mM HEPES and 100 U/ml penicillin and 100 μg/ml streptomycin (“P/S”). MDA-MB-231, HCT116, Caki-1 and PANC-1 cells were maintained in Dulbecco's modified Eagle's medium (“DMEM”, Invitrogen) supplemented with 10% FBS, P/S, 10 mM HEPES and 2 mM L-glutamine. All cells were incubated at 37° C. under humidified 5% CO2.
# (§2) The growth inhibition of the tetrahydroisoquinolin-2-yl-(quinazolin-4-yl)methanone compounds against a variety of human tumor cells was evaluated to study the relative importance of particular substituent groups on the compounds. The tetrahydroisoquinolin-2-yl-(quinazolin-4-yl)methanone compounds, prepared as described above, were tested with DMSO as a control.
# (§3) The growth inhibition assay of representative tetrahydroisoquinolin-2-yl-(quinazolin-4-yl)methanone derivatives against human tumor cell lines was performed using the Sulforhodamine B (“SRB”) method (Skehan et al., J. National Cancer Institute, 82: 1107-1112 (1990)). Briefly, exponentially growing tumor cells were seeded into a 96-well plate at a density of 2-3×10^3 cells/well and treated with tetrahydroisoquinolin-2-yl-(quinazolin-4-yl)methanone compounds the next day. Triplicate wells were used for each treatment. The cells were incubated with the various compounds for 96 hours at 37° C. in a humidified 5% CO2 atmosphere. After 96-hour incubation, cells were fixed with 10% trichloroacetic acid (“TCA”), incubated for 1 hour at 4° C., and washed 3 times with tap water. Subsequently, cells were stained with 0.4% sulforhodamine B in 1% acetic acid for 30 minutes, washed 4 times with 1% acetic acid, and air-dried again After 5 minutes agitation in 10 mM Tris solution, the absorbance of each well was measured at 530 nm using Benchmark Plus Microplate reader (Bio-Rad Laboratories, Hercules, Calif.).
# (§4) To translate the OD530 values into the number of live cells in each well, the OD530 values were compared to those on standard OD530-versus-cell number curves generated for each cell line. The percent survival was calculated using the formula: % Survival=live cell number [test]/live cell number [control]×100
# (§5) The IC50 values were calculated by non-linear regression analysis.
# (§6) The compounds were screened against at […] including PANC-1, MDA-MB-231, HCT116 and Caki-1, at approximately 1 μM concentration. The inhibition of cell growth (IC50, μM) of some tetrahydroisoquinolin-2-yl-(quinazolin-4-yl)methanone compounds are shown in Table 2.
# [3] = system: Caki-1 (kidney); assay: SRB growth inhibition assay, Caki-1; assay type: cell-based, Human; settings: Homo sapiens, CAKI-1, 96 hours incubation, read-out: Inhibition of cell growth (IC50, μM) Caki-1
# From the text: as §1, §2, §3, §4, §5, §6
# [4] = system: PC3 (prostate); assay: SRB growth inhibition assay, PC3; assay type: cell-based; settings: Homo sapiens, 96 hours incubation, read-out: Inhibition of cell growth (IC50, μM) PC-3
# From the text: as §1, §2, §3, §4, §5
# [5] = system: A549 (lung); assay: SRB growth inhibition assay, A549; assay type: cell-based; settings: Homo sapiens, 96 hours incubation, read-out: Inhibition of cell growth (IC50, μM) A549
# From the text: as §1, §2, §3, §4, §5
# [6] = system: HeLa (cervix); assay: SRB growth inhibition assay, HeLa; assay type: cell-based; settings: Homo sapiens, 96 hours incubation, read-out: Inhibition of cell growth (IC50, μM) HeLa
# From the text: as §1, §2, §3, §4, §5
# [7] = system: U251 (brain); assay: SRB growth inhibition assay, U251; assay type: cell-based; settings: Homo sapiens, U-251, 96 hours incubation, read-out: Inhibition of cell growth (IC50, μM) U251
# From the text: as §1, §2, §3, §4, §5
# [8] = system: MDA-MB-231 (breast); assay: SRB growth inhibition assay, MDA-MB-231; assay type: cell-based, Human; settings: Homo sapiens, MDA-MB-231, 96 hours incubation, read-out: Inhibition of cell growth (IC50, μM) MDA-MB-231
# From the text: as §1, §2, §3, §4, §5, §6
# [9] = system: HepG2 (liver); assay: SRB growth inhibition assay, HepG2; assay type: cell-based; settings: Homo sapiens, 96 hours incubation, read-out: Inhibition of cell growth (IC50, μM) HepG2
# From the text: as §1, §2, §3, §4, §5
# [10] = system: SK-MEL-28 (melanoma); assay: SRB growth inhibition assay, SK-MEL-28; assay type: cell-based; settings: Homo sapiens, 96 hours incubation, read-out: Inhibition of cell growth (IC50, μM) SK-MEL-28
# From the text: as §1, §2, §3, §4, §5
# [11] = system: PANC-1 (pancreas); assay: SRB growth inhibition assay, PANC-1; assay type: cell-based, Human; settings: Homo sapiens, PANC-1, 96 hours incubation, read-out: Inhibition of cell growth (IC50, μM) Panc-1
# From the text: as §1, §2, §3, §4, §5, §6
# [12] = system: OVCAR-3 (ovary); assay: SRB growth inhibition assay, OVCAR-3; assay type: cell-based; settings: Homo sapiens, 96 hours incubation, read-out: Inhibition of cell growth (IC50, μM) Ovcar3
# From the text: as §1, §2, §3, §4, §5
# [13] = system: MKN-45 (stomach); assay: SRB growth inhibition assay, MKN-45; assay type: cell-based; settings: Homo sapiens, 96 hours incubation, read-out: Inhibition of cell growth (IC50, μM) MKN-45
# From the text: as §1, §2, §3, §4, §5
SMILES,inhibition of tumor growth (tumor volume) [1],IC50 [2],IC50 [3],IC50 [4],IC50 [5],IC50 [6],IC50 [7],IC50 [8],IC50 [9],IC50 [10],IC50 [11],IC50 [12],IC50 [13]
"COc1ccc2c(c1O)CCN(C(=O)c1nc(-c3ccc(F)cc3)nc3ccccc13)C2 [Compound 1, 2-[[2-(4-fluorophenyl)quinazolin-4-yl]carbonyl]-5-hydroxy-6-methoxy-1,2,3,4-tetrahydroisoquinoline]",inhibition of tumor growth,0.069 µM,0.056 µM,0.076 µM,0.14 µM,0.063 µM,0.067 µM,0.06 µM,0.12 µM,0.063 µM,0.057 µM,0.06 µM,0.058 µM
"COc1ccc2c(c1O)CCN(C(=O)c1nc(-c3cccc(F)c3)nc3ccccc13)C2 [Compound 42, 2-[[2-(3-fluorophenyl)quinazolin-4-yl]carbonyl]-5-hydroxy-6-methoxy-1,2,3,4-tetrahydroisoquinoline]",,0.14 µM,0.082 µM,0.15 µM,0.21 µM,0.12 µM,0.11 µM,0.12 µM,0.2 µM,0.098 µM,0.12 µM,0.15 µM,0.051 µM

# From US9713615B2, “Tetrahydroisoquinolin-2-yl-(quinazolin-4-yl)methanone compounds” (Rexahn Pharmaceuticals, Inc., priority 2013, dated 2017)
